Results as given in publication PMC10688820 (Microbiome Research Reports, 2023).
Read-outs that look alike come from different tables or passages of the source.

Experiments:
BiBga42A [1] = target: T1, BiBga42A (Bifidobacterium longum, UniProt Z9E2X9H8H4, R121A/A160E/A318E, form not given); assay: coupled colorimetric Gal release assay (Thio-NADH, […] nm); type: biochemical; conditions: 100 mM citrate-phosphate pH 6.5, 37 °C, 12.5 mM MgCl2 (coupling mix)
T1 construct: C-terminal hexahistidine tag, pET23b, expressed in E. coli BL21 (DE3) ΔlacZ; GH42; homotrimer, active site completed by W200 and F221 of neighbouring subunit

BiBga42A [2] = target: T2, BiBga42A (Bifidobacterium longum, UniProt Z9E2X9H8H4, A160E/M262G/A318E, form not given); assay: as above; type: biochemical; conditions: 100 mM citrate-phosphate pH 6.5, 37 °C, 12.5 mM MgCl2 (coupling mix); read-out: LNT
T2 construct: C-terminal hexahistidine tag, pET23b, expressed in E. coli BL21 (DE3) ΔlacZ; GH42; homotrimer, active site completed by W200 and F221 of neighbouring subunit

BiBga42A [3] = target: T3, BiBga42A (Bifidobacterium longum, UniProt Z9E2X9H8H4, A160E/A318E/W326A, form not given); assay: as above; type: biochemical; conditions: 100 mM citrate-phosphate pH 6.5, 37 °C, 12.5 mM MgCl2 (coupling mix)
T3 construct: C-terminal hexahistidine tag, pET23b, expressed in E. coli BL21 (DE3) ΔlacZ; GH42; homotrimer, active site completed by W200 and F221 of neighbouring subunit

BiBga42A [4] = target: T4, BiBga42A (Bifidobacterium longum, UniProt Z9E2X9H8H4, A160E/F221A/A318E, form not given); assay: as above; type: biochemical; conditions: 100 mM citrate-phosphate pH 6.5, 37 °C, 12.5 mM MgCl2 (coupling mix); read-out: LNT
T4 construct: C-terminal hexahistidine tag, pET23b, expressed in E. coli BL21 (DE3) ΔlacZ; GH42; homotrimer, active site completed by W200 and F221 of neighbouring subunit

BiBga42A [5] = target: T5, BiBga42A (Bifidobacterium longum, UniProt Z9E2X9H8H4, A160E/A318E/R327A, form not given); assay: as above; type: biochemical; conditions: 100 mM citrate-phosphate pH 6.5, 37 °C, 12.5 mM MgCl2 (coupling mix); read-out: LNT
T5 construct: C-terminal hexahistidine tag, pET23b, expressed in E. coli BL21 (DE3) ΔlacZ; GH42; homotrimer, active site completed by W200 and F221 of neighbouring subunit

BiBga42A [6] = target: T6, BiBga42A (Bifidobacterium longum, UniProt Z9E2X9H8H4, A160E/A318S, form not given); assay: X-ray co-crystal structure, […] Å; type: binding; conditions: co-crystallised with 100 mM LNT, pH 5.8; subsites -1 to +3
T6 construct: C-terminal hexahistidine tag, pET23b, expressed in E. coli BL21 (DE3) ΔlacZ; GH42; homotrimer, active site completed by W200 and F221 of neighbouring subunit

BiBga42A [7] = target: T7, BiBga42A (Bifidobacterium longum, UniProt Z9E2X9H8H4, A160E/A318E, form not given); assay: coupled colorimetric Gal release assay (Thio-NADH, […] nm); type: biochemical; conditions: 100 mM citrate-phosphate pH 6.5, 37 °C, 12.5 mM MgCl2 (coupling mix)
T7 construct: C-terminal hexahistidine tag, pET23b, expressed in E. coli BL21 (DE3) ΔlacZ; GH42; homotrimer, active site completed by W200 and F221 of neighbouring subunit

BiBga42A [8] = target: T8, BiBga42A (Bifidobacterium longum, UniProt Z9E2X9H8H4, A160E/Y287F/A318E, form not given); assay: as above; type: biochemical; conditions: 100 mM citrate-phosphate pH 6.5, 37 °C, 12.5 mM MgCl2 (coupling mix); read-out: LNT
T8 construct: C-terminal hexahistidine tag, pET23b, expressed in E. coli BL21 (DE3) ΔlacZ; GH42; homotrimer, active site completed by W200 and F221 of neighbouring subunit

[9] = target: BiBga42A wild-type (WT) enzyme, glycoside hydrolase family 42 β-galactosidase from Bifidobacterium longum subsp. infantis ATCC 15697 (Bifidobacterium longum subsp. infantis ATCC 15697); assay: crystal structure; hanging drop vapor diffusion, 20 °C, 20 mg/mL protein; trimer seen by a crystallographic 3-fold axis (WT-GOL, E318S-LNT) or within the asymmetric unit (E160A/E318A-Gal)
[10] = target: BiBga42A E160A/E318A double mutant (Bifidobacterium longum subsp. infantis ATCC 15697); assay: as above
BiBga42A [11] = target: T9, BiBga42A (Bifidobacterium longum, UniProt Z9E2X9H8H4, A160E, form not given); assay: coupled colorimetric Gal release assay (Thio-NADH, […] nm); type: biochemical; conditions: 100 mM citrate-phosphate pH 6.5, 37 °C, 12.5 mM MgCl2 (coupling mix); read-out: pNP-Gal
T9 construct: C-terminal hexahistidine tag, pET23b, expressed in E. coli BL21 (DE3) ΔlacZ; GH42; homotrimer, active site completed by W200 and F221 of neighbouring subunit

BiBga42A [12] = target: T10, BiBga42A (Bifidobacterium longum, UniProt Z9E2X9H8H4, A318E, form not given); assay: as above; type: biochemical; conditions: 100 mM citrate-phosphate pH 6.5, 37 °C, 12.5 mM MgCl2 (coupling mix); read-out: pNP-Gal
T10 construct: C-terminal hexahistidine tag, pET23b, expressed in E. coli BL21 (DE3) ΔlacZ; GH42; homotrimer, active site completed by W200 and F221 of neighbouring subunit

[13] = target: BiBga42A E318S mutant (Bifidobacterium longum subsp. infantis ATCC 15697); assay: crystal structure; hanging drop vapor diffusion, 20 °C, 20 mg/mL protein; trimer seen by a crystallographic 3-fold axis (WT-GOL, E318S-LNT) or within the asymmetric unit (E160A/E318A-Gal)

CC(=O)N[C@H]1[C@H](O[C@H]2[C@@H](O)[C@@H](CO)O[C@@H](O[C@H]3[C@H](O)[C@@H](O)C(O)O[C@@H]3CO)[C@@H]2O)O[C@H](CO)[C@@H](O)[C@@H]1O[C@@H]1O[C@H](CO)[C@H](O)[C@H](O)[C@H]1O (some centres unmarked) [LNT]
Km (BiBga42A [1]; read-out: LNT): 16 mM | Km (BiBga42A [2]): 3 mM | Km (BiBga42A [3]; read-out: LNT): 7.7 mM | Km (BiBga42A [4]): 8.4 mM | Km (BiBga42A [5]): 11 mM | X-ray co-crystal structure, 2.2 Å (BiBga42A [6]): An LNT-complexed crystal was indeed obtained for the mutant | Km (BiBga42A [7]; read-out: LNT): 2.7 mM | Km (BiBga42A [8]): 2.6 mM

BiBga42A wild-type (WT) enzyme, glycoside hydrolase family 42 β-galactosidase from Bifidobacterium longum subsp. infantis ATCC 15697
stoichiometry N [9]: 3

BiBga42A E160A/E318A double mutant (enzyme)
stoichiometry N [10]: 3

O=[N+]([O-])c1ccc(O[C@@H]2O[C@H](CO)[C@H](O)[C@H](O)[C@H]2O)cc1 [pNP-Gal]
Km (BiBga42A [11]): 1.4 mM | Km (BiBga42A [1]; read-out: pNP-Gal): 1.4 mM | Km (BiBga42A [3]; read-out: pNP-Gal): 12 mM | Km (BiBga42A [12]): 940 µM | Km (BiBga42A [7]; read-out: pNP-Gal): 0.57 mM

BiBga42A E318S mutant (enzyme)
stoichiometry N [13]: 3

CC(=O)N[C@H]1C(O)O[C@H](CO)[C@@H](O)[C@@H]1O[C@@H]1O[C@H](CO)[C@H](O)[C@H](O)[C@H]1O (some centres unmarked) [LNB]
Km (BiBga42A [7]; read-out: LNB): 25 mM
